Laboratory results as given in publication PMC6030159 (Scientific Reports, 2018).
Values joined by “and” are separate entries in the source; they are usually repeats but may differ in a detail not shown here. Identical values can stand only once. “Also recorded” adds a separate entry of the source.

Legend:
[1] = system: SK-N-DZ cells; test: Anchorage-independent growth in agarose; format: cell-based; conditions: Homo sapiens, 384 h, 0.35% agarose, 16 days
Description: Triton-X-114 (Sigma). Truncated p53 core protein was a kind gift from Klas Wiman, CCK, […]
Cell proliferation assays. Cell growth and viability was estimated in triplicates with WST-1 (Roche) or Resazurin sodium salt (Sigma-Aldrich) assays in medium at 37°C and 5% CO 2 for 2 hours after which absorbance or fluorescence, respectively, was measured with an Omega Fluostar (BMG Labtech) in a 96 well plate format. Cell counting was done in 96 well plates with CellTracker Green (ThermoFisher) for 30 min in the incubator, after which DAPI was added for 5 min. Images were taken in the green (FITC) and blue (DAPI) channels using a fluorescence microscope (ImageXpress Micro, Molecular Devices). For anchorage-independent growth assay, cells were suspended in 250 µl 0.35% SeaPlaque agarose (InVitro) and seeded into 24 well plates which had previously been coated with a bottom layer of 250 µl 0.7% agarose. After 16 days, the colonies were stained with 100 µg/ml MTT (Sigma) overnight and colonies were counted.
Immunohistochemistry. Apoptosis was visualized at the single-cell level on tumor cryosections using the TUNEL method using the In Situ Cell Death Detection Fluorescein-Roche kit and analyzed by fluorescence microscopy. Briefly, tumor cryosections were fixed in 4% paraformaldyde (PFA) and the assay was performed following the instructions from the manufacturer. Negative controls were run using the reagent without the TdT enzyme. Samples were mounted using Vectashield mounting medium (Vector) and DAPI was used as nuclear counterstaining. Cell proliferation and microvascular density (MVD) were evaluated through Ki67 and CD31staining, respectively, on tumor cryosections and detected by immunofluoresence. Visualization and image acquisition was done in a Zeiss microscope, and for panoramic views by a Vectra imaging system. For quantification, areas with positive TUNEL and Ki67 staining were measured using Image J software. For the analysis of MVD, the number of vessel structures per microscopic field was calculated.

[2] = system: endogenous MYC protein; test: Western blot of endogenous MYC in HeLa cells; format: cell-based; conditions: 10 μM, 24 hours
Description: These assays were performed essentially as described in[67],[68]. For further information on immunohistochemistry, and on primers and antibodies, see Supplementary Information.

[3] = target: T1, endogenous MYC:MAX interaction (Homo sapiens, UniProt P01106); test: isPLA endogenous MYC:MAX in breast cancer cells (MCF7); format: cell-based; conditions: 24 hours; for MYC:MAX isPLA signals, % of DMSO-treated controls: 10 μM, breast cancer cells; for IC50: titration in MCF7 cells, read-out: IC50 for inhibition of MYC:MAX by isPLA
T1 construct: endogenous in cells; host or cells: breast cancer cells; MCF7 named for the titration
Description: The isPLA assay has been described. Antibodies used are listed in Supplementary Information. […] Slides were washed in PBS with 0.05% Tween 20 and incubated in blocking buffer after which isPLA was performed using the Duolink® in situ PLA kit (Sigma-Aldrich) according to the manufacturer’s protocol. DNA was stained with DAPI. Incubation with primary antibodies were performed at +4 °C overnight. Images were taken using an Axiovert 200M inverted microscope (Zeiss) and fluorescent dots were quantified using semi-automated analysis in ImageJ (http://imagej.net) and averaged to number of dots per cell.

[4] = target: T2, MYCbHLHZip:MAXbHLHZip (Homo sapiens, UniProt P01106); test: MST MYC:MAX heterodimer formation assay; format: binding; conditions: for shift of MAX thermophoresis relative to DMSO (MYC:MAX MST): 50 µM compound, 1 µM MYCbHLHZip
T2 construct: 6xHis (N); made in house; host or cells: E. coli BL21 (DE3), pET28a
Source text: We next investigated the capacity of the small molecule inhibitors to directly target the MYC:MAX interaction in vitro. Two biophysical interaction assays, microscale thermophoresis (MST)[44] and surface plasmon resonance (SPR)[45], were developed using recombinant MYC and MAX proteins (Suppl. Fig. S1C) (manuscript in prep.). MST is based on the shift of fluorescent molecules moving in a temperature gradient (thermophoresis), which can be perturbed by interactions. In the MST MYC:MAX interaction assay, fluorescently labeled MAXbHLHZip was combined with MYCbHLHZip pre-mixed with compound.
MST was carried out on a Monolith NT.115 with blue/green filters, kindly provided by Luca Jovine, Karolinska Institutet Huddinge, according to manufacturer’s protocol (NanoTemper). MYCbHLHZip, MAXbHLHZip, BSA and BCL-XL recombinant proteins and compounds were diluted and titrated in PBS supplemented with 0.05% Triton-X-114 or 0.05% Tween-20. Titration of molecules was carried out in 16 PCR tubes into which a fixed concentration of fluorescent molecule was added. The mixture was applied to capillaries (standard treated, NanoTemper), and scanned in the Monolith NT.115 to measure initial fluorescence of molecule. MST was induced and fluorescence was measured during 40 seconds. Double measurements were carried out (MST power of 20% and 40%, or 40% and 60%) for each sample. Delta fluorescence or relative fluorescence of fluorescent molecule normalized to control vehicle was plotted against titrated molecule concentration. The protein labeling kit GREEN-NHS (NanoTemper) was used to label primary amines of proteins according to manufacture’s protocol.

[5] = system: MYCN-amplified neuroblastoma cells (IMR-32, Kelly, SK-N-DZ); test: Resazurin growth assay, MYCN-amplified neuroblastoma cell lines; format: cell-based, human; conditions: 48 hours; for growth of MYCN-amplified versus MYCN-non-amplified neuroblastoma cell lines: MYCMI-6 6.25 μM, MYCMI-11 and MYCMI-14 25 μM, 10058-F4 64 μM
Source text: HEK293A, MCF7, MDA-MB231, SK-N-F1, SK-N-RA, SK-N-AS, COS-7, HeLa, BJ cells, and Rat1 fibroblasts TGR-1 (wt), HO15.19 (MYC knockout) and HOmyc3 (MYC reconstituted HO15.19) were maintained in DMEM. The neuroblastoma cell lines Kelly, IMR-32 and SK-N-DZ, and the Burkitt’s lymphoma cell lines Mutu, Daudi and ST486 were kept in RPMI. SK-N-BE(2) cells were maintained in a 1:1 mixture of EMEM and F12 media, supplemented with 1% non-essential amino acid solution (NEAA) and 0.5% Glutamine. U2OS-MYC-ER cell lines were cultured in phenol-red free DMEM and treated with 100 nM 4-hydroxytamoxifen (HOT) (Sigma-Aldrich) to activate MYC-ER. IMR-90 was maintained in MEM. All media were supplemented with 10% FBS and 1% penicillin and streptomycin and kept at 37 °C and 5% CO2. All cell lines were mycoplasma free. Cell proliferation assays were performed as described in Supplementary Information. […]
Cell proliferation assays. Cell growth and viability was estimated in triplicates with WST-1
(Roche) or Resazurin sodium salt (Sigma-Aldrich) assays in medium at 37°C and 5% CO 2 for
2 hours after which absorbance or fluorescence, respectively, was measured with an Omega
Fluostar (BMG Labtech) in a 96 well plate format. […]

T2 sequence (P01106 367-447 limits assumed): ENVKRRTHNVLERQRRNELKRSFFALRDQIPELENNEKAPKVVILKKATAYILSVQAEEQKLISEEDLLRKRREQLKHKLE
T1 sequence (P01106 whole entry): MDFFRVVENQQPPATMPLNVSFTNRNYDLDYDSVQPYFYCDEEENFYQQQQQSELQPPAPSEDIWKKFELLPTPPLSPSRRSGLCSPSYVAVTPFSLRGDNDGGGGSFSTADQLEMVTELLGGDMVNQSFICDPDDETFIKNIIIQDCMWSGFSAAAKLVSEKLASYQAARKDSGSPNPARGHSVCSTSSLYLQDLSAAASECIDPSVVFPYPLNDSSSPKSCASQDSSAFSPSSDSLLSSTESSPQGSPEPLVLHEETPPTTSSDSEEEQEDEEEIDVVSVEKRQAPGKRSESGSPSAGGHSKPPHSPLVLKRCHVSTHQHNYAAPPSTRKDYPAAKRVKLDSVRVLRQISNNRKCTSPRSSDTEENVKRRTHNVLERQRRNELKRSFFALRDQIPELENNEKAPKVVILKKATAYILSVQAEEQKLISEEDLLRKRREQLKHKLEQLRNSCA

Row | GI50 [1] | MYC:MAX isPLA signals, % of DMSO-treated controls [3] | IC50 [3] | shift of MAX thermophoresis relative to DMSO (MYC:MAX MST) [4] | Compound | effect on endogenous MYC protein levels (western blot) [2] | growth of MYCN-amplified versus MYCN-non-amplified neuroblastoma cell lines [5] | effect on endogenous MYC protein levels (western blot) ([2]; listed as MYCM-14) | Kd ([4]; titration with 1 µM MYCbHLHZip and labeled MAXbHLHZip, read-out: Kd of thermophoresis shift, MYC:MAX MST) | GI50 ([5]; Homo sapiens, Neuroblastoma cell, resazurin)
1 | 5 µM | 23% | ~6 µM and 6 µM | less effective | CCCCN(c1ccccc1)c1ncnc2c1cnn2C [MYCMI-11] | did not affect MYC protein levels to any greater extent; also recorded: do not | reduced growth of the MYCN-amplified cell lines significantly stronger than the MYCN-non-amplified cell lines |  |  | 
2 | 0.75 µM | 23% | ~6 µM and 6 µM | less effective | O=C(O)/C=C/C(=O)Nc1cccc2c1-c1ccccc1C2=O [MYCMI-14] | did not affect MYC protein levels to any greater extent | reduced growth of the MYCN-amplified cell lines significantly stronger than the MYCN-non-amplified cell lines | do not |  | 

Row | Compound | GI50 [1] | MYC:MAX isPLA signals, % of DMSO-treated controls [3] | IC50 [3] | shift of MAX thermophoresis relative to DMSO (MYC:MAX MST) [4] | effect on endogenous MYC protein levels (western blot) [2] | growth of MYCN-amplified versus MYCN-non-amplified neuroblastoma cell lines [5] | effect on endogenous MYC protein levels (western blot) ([2]; listed as MYCM-14) | Kd ([4]; titration with 1 µM MYCbHLHZip and labeled MAXbHLHZip, read-out: Kd of thermophoresis shift, MYC:MAX MST) | GI50 ([5]; Homo sapiens, Neuroblastoma cell, resazurin)
3 | CCOc1ccc2nc3cc(/N=N/c4ccc(N)nc4N)ccc3c(N)c2c1 [MYCMI-6] | < 0.4 µM | 7% | < 1.5 µM and 1.5 µM | shifted MAX thermophoresis | did not affect MYC protein levels to any greater extent; also recorded: do not | reduced growth of the MYCN-amplified cell lines significantly stronger than the MYCN-non-amplified cell lines |  | 4.3 µM | 2.5 to 6 µM
